According to patent publication US8901138B2, “Sulfoximine substituted quinazolines for pharmaceutical compositions” (Boehringer Ingelheim International GmbH, priority 2012, dated 2014):

Experiments:
MNK1a = MNK1a (Homo sapiens, UniProt Q9BUB5); experiment: MNK1 in vitro kinase assay (assay 2), Z'-LYTE; assay type: biochemical; conditions: for inhibition at 1 µM: compound concentration of 1 μM; for IC50: pre-activated GST-MNK1a
Summary of the method: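 Pre-activated GST-MNK1a (13.5-54 ng) with 2 μM Ser/Thr 07 FRET peptide in 50 mM HEPES pH 7.5, 10 mM MgCl2, 2 mM MnCl2, 1 mM EGTA, 1 mM DTT, 1% DMSO; 1 h kinase then 1 h development at room temperature. Coumarin/fluorescein emission ratio gives % phosphorylation; sigmoidal dose-response fit.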

MNK2a = biological target: T1, MNK2a (Homo sapiens, UniProt Q9HBH9); experiment: MNK2a in vitro kinase assay (assay 1), ADP-Glo; assay type: biochemical; conditions: preactivated GST-MNK2a, 20 μM ATP, read-out: MNK2 IC50
T1 construct: made in house
Summary of the method: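 Preactivated GST-MNK2a (10 nM) with eIF4E peptide (25 μM) and ATP (20 μM) in HEPES/DTT/MgCl2 buffer, 90 min at room temperature, final DMSO <3%. ADP formed read by ADP-Glo luminescence and normalised to vehicle and 20 μM reference-inhibitor controls; IC50 from dose-response curves.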

T1 sequence (Q9HBH9 whole entry): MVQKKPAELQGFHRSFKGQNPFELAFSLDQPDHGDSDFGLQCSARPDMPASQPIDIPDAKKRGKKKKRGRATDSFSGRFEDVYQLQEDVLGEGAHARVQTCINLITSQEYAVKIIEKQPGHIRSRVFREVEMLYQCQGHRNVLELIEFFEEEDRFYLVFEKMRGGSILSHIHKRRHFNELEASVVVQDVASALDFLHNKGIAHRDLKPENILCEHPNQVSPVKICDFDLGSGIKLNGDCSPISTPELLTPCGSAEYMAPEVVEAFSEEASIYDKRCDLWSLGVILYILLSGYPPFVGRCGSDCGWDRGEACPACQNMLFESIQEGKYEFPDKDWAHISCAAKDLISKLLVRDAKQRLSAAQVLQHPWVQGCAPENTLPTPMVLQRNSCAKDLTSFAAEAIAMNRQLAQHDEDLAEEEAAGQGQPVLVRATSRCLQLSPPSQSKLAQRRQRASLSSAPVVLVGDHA
MNK1a, sequence (Q9BUB5 1-424 isoform Q9BUB5-2): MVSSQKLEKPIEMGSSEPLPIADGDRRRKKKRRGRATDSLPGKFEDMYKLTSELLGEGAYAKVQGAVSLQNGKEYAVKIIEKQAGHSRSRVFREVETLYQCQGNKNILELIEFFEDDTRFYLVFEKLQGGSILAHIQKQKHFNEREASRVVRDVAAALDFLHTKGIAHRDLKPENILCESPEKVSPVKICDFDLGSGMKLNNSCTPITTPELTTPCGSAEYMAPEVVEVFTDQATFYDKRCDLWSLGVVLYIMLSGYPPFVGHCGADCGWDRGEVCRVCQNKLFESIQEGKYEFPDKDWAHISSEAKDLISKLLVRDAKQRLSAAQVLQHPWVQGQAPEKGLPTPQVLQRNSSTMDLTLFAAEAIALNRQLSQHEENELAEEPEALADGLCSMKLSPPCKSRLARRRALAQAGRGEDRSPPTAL

Structure (SMILES)	inhibition at 1 µM (MNK1a) [%]	IC50 (MNK2a) [nM]	IC50 (MNK1a) [nM]
COCCS(C)(=O)=Nc1cc(C)c2c(Nc3ccc(F)cc3O[C@@H]3CO[C@H]4[C@@H]3OC[C@H]4O)ncnc2c1 (stereo partly shown) [Example 2.41]	90	6	
CCS(C)(=O)=Nc1cc(C)c2c(Nc3cccnc3O[C@H]3CC[C@H](O)CC3)ncnc2c1 (stereo partly shown) [Example 2.44]	100	3	
Cc1cc(N=S(C)(C)=O)cc2ncnc(Nc3ccc(F)cc3O[C@@H]3CO[C@H]4[C@@H]3OC[C@@]4(C)O)c12 [Example 2.45]	90	2	
Cc1cc(N=S(C)(C)=O)cc2ncnc(Nc3ccc(F)cc3O[C@H]3CCOC3)c12 [Example 2.47]	97	2	
CO[C@H]1CC[C@H](Oc2ncccc2Nc2ncnc3cc(N=S(C)(C)=O)cc(F)c23)CC1 [Example 2.49]	86	4	
Cc1cc(N=S2(=O)CCCCC2)cc2ncnc(Nc3ccc(F)cc3O[C@@H]3CO[C@H]4[C@@H]3OC[C@H]4O)c12 [Example 2.51]	101	3	
CS(C)(=O)=Nc1cc(F)c2c(Nc3cccnc3O[C@@H]3CCOC3)ncnc2c1 [Example 2.53]	94	13	
Cc1cc(N=S(C)(=O)CCc2ccccc2)cc2ncnc(Nc3ccc(F)cc3O[C@H]3CC[C@H](O)CC3)c12 (stereo partly shown) [Example 2.54]	69	5	
CCS(C)(=O)=Nc1cc(C)c2c(Nc3ccc(F)cc3O[C@@H]3CO[C@H]4[C@@H]3OC[C@H]4OC)ncnc2c1 (stereo partly shown) [Example 2.55]	99	2	
CO[C@H]1CC[C@H](Oc2cc(F)ccc2Nc2ncnc3cc(N=S4(=O)CCOCC4)cc(F)c23)CC1 [Example 2.56]	76	11	
Cc1cc(N=S(C)(C)=O)cc2ncnc(Nc3ccsc3O[C@@H]3CCOC3)c12 [Example 2.58]	30	109	
Cc1cc(N=S2(=O)CCCC2)cc2ncnc(Nc3ccc(F)cc3O[C@@H]3CCN(C(=O)OC(C)(C)C)C3)c12 [Example 2.59]	82	15	
Cc1cc(N=S(C)(C)=O)cc2ncnc(Nc3ccc(F)cc3O[C@@H]3CO[C@H]4[C@@H]3OC[C@@H]4C#N)c12 [Example 2.61]	98	2	
Cc1cc(N=[S@@](C)(=O)c2ccccc2)cc2ncnc(Nc3ccc(F)cc3O[C@H]3CCOC3)c12 [Example 2.64]	87	3	
Cc1cc(N=S(C)(C)=O)cc2ncnc(Nc3ccc(C#N)cc3O[C@H]3CC[C@H](O)CC3)c12 [Example 2.65]	98	5	
Cc1cc(N=S2(=O)CCCC2)cc2ncnc(Nc3ccc(F)cc3O[C@@H]3CCCN(C(=O)OC(C)(C)C)C3)c12 [Example 2.66]	88	16	
CO[C@@H]1CCCC[C@H]1Oc1cc(F)ccc1Nc1ncnc2cc(N=S(C)(C)=O)cc(C)c12 [Example 2.67]	85	3	
Cc1cc(N=[S@](C)(=O)c2ccccc2)cc2ncnc(Nc3ccc(F)cc3O[C@H]3CCOC3)c12 [Example 2.72]	71	30	
CO[C@H]1CC[C@H](Oc2cc(F)ccc2Nc2ncnc3cc(N=S(C)(C)=O)cc(C)c23)CC1 [Example 2.75]	100	3	75
CO[C@@H]1CO[C@H]2[C@@H]1OC[C@H]2Oc1cc(F)ccc1Nc1ncnc2cc(N=S(C)(C)=O)cc(F)c12 [Example 2.76]	100	5	57
CC(C)(C)OC(=O)N1CCC[C@@H](Oc2ncccc2Nc2ncnc3cc(N=S(C)(C)=O)cc(F)c23)C1 [Example 2.77]	55	164	
Cc1cc(N=S(C)(C)=O)cc2ncnc(Nc3ccc(F)cc3O[C@H]3CO[C@H]4[C@@H]3OC[C@@H]4O)c12 [Example 2.80]	73	19	
CCS(C)(=O)=Nc1cc(C)c2c(Nc3ccc(F)cc3O[C@H]3CC[C@H](OC)CC3)ncnc2c1 (stereo partly shown) [Example 2.81]	92	4	
CO[C@H]1CC[C@H](Oc2cc(F)ccc2Nc2ncnc3cc(N=S4(=O)CCCCC4)cc(C)c23)CC1 [Example 2.84]	91	2	
COCCS(C)(=O)=Nc1cc(C)c2c(Nc3ccc(F)cc3O[C@H]3CC[C@H](OC)CC3)ncnc2c1 (stereo partly shown) [Example 2.87]	79	7	
Cc1cc(N=S2(=O)CCCC2)cc2ncnc(Nc3cccnc3OC3COCCOC3)c12 [Example 2.88]	95	5	

Structure (SMILES)	inhibition at 1 µM (MNK1a) [%]	IC50 (MNK2a) [nM]	IC50 (MNK1a) [nM]
Cc1cc(N=S(C)(C)=O)cc2ncnc(Nc3cccnc3OC3COCCOC3)c12 [Example 2.91]	93	7	
CCS(=O)(CC)=Nc1cc(C)c2c(Nc3ccc(F)cc3O[C@H]3CCOC3)ncnc2c1 [Example 2.92]	83	13	
Cc1cc(N=S2(=O)CCC(O)CC2)cc2ncnc(Nc3ccc(F)cc3O[C@@H]3CO[C@@H]4CCO[C@@H]43)c12 (stereo partly shown) [Example 2.94]	98	1	
Cc1cc(N=S(C)(=O)c2cccnc2)cc2ncnc(Nc3ccc(F)cc3O[C@@H]3CO[C@@H]4CCO[C@@H]43)c12 (stereo partly shown) [Example 2.95]		4	33
Cc1cc(N=S2(=O)CCC(O)CC2)cc2ncnc(Nc3ccc(F)cc3O[C@H]3CCOC3)c12 (stereo partly shown) [Example 2.97]	93	2	
Cc1cc(N=S2(=O)CCC2)cc2ncnc(Nc3ccc(F)cc3O[C@H]3CCOC3)c12 [Example 2.98]	95	1	
Cc1cc(N=S(C)(=O)C2CCOCC2)cc2ncnc(Nc3ccc(F)cc3O[C@@H]3CO[C@@H]4CCO[C@@H]43)c12 (stereo partly shown) [Example 2.99]	96	5	
Cc1cc(N=S(C)(=O)c2ccncc2)cc2ncnc(Nc3ccc(F)cc3O[C@H]3CCOC3)c12 (stereo partly shown) [Example 2.100]	89	6	
Cc1cc(N=S(C)(=O)C2CCOCC2)cc2ncnc(Nc3ccc(F)cc3O[C@H]3CCOC3)c12 (stereo partly shown) [Example 2.101]	93	5	
Cc1cc(N=S(C)(=O)c2cccnc2)cc2ncnc(Nc3ccc(F)cc3O[C@H]3CCOC3)c12 (stereo partly shown) [Example 2.102]		5	131
Cc1cc(N=S(C)(=O)C2CC2)cc2ncnc(Nc3ccc(F)cc3O[C@H]3CCOC3)c12 (stereo partly shown) [Example 2.103]		7	82
Cc1cc(N=S(C)(=O)C(C)C)cc2ncnc(Nc3ccc(F)cc3O[C@H]3CCOC3)c12 (stereo partly shown) [Example 2.104]	95	4	
Cc1cc(N=S2(=O)CCC2)cc2ncnc(Nc3ccc(F)cc3O[C@@H]3CO[C@@H]4CCO[C@@H]43)c12 [Example 2.106]	98	1	
Cc1cc(N=S(C)(=O)CCN2CCCC2)cc2ncnc(Nc3ccc(F)cc3O[C@H]3CC[C@H](O)CC3)c12 (stereo partly shown) [Example 2.107]		10	102
Cc1cc(N=S(C)(=O)C(C)(C)C)cc2ncnc(Nc3ccc(F)cc3O[C@@H]3CO[C@@H]4CCO[C@@H]43)c12 (stereo partly shown) [Example 2.108]	99	3	
Cc1cc(N=S(C)(=O)C(C)C)cc2ncnc(Nc3ccc(F)cc3O[C@@H]3CO[C@@H]4CCO[C@@H]43)c12 (stereo partly shown) [Example 2.109]	100	2	
Cc1cc(N=S2(=O)CCC2)cc2ncnc(Nc3ccc(F)cc3O[C@H]3CC[C@H](O)CC3)c12 [Example 2.110]	100	2	
Cc1cc(N=S(C)(=O)C(C)(C)C#N)cc2ncnc(Nc3ccc(F)cc3O[C@H]3CCOC3)c12 (stereo partly shown) [Example 2.111]	89	5	
Cc1cc(N=S(C)(=O)C(C)(C)C)cc2ncnc(Nc3ccc(F)cc3O[C@H]3CCOC3)c12 (stereo partly shown) [Example 2.112]	89	6	
Cc1cc(N=S(C)(=O)CCN(C)C)cc2ncnc(Nc3ccc(F)cc3O[C@H]3CC[C@H](O)CC3)c12 (stereo partly shown) [Example 2.113]	90	5	
Cc1cc(N=S(C)(=O)C2CC2)cc2ncnc(Nc3ccc(F)cc3O[C@@H]3CO[C@@H]4CCO[C@@H]43)c12 (stereo partly shown) [Example 2.114]	96	2	
Cc1cc(N=S(C)(C)=O)cc2ncnc(Nc3ccc(F)cc3O[C@@H]3CO[C@H]4[C@@H]3OC[C@@H]4F)c12 [Example 2.116]	100	2	
Cc1cc(N=S2(=O)CCCC2)cc2ncnc(Nc3ccc(F)cc3O[C@@H]3CO[C@H]4[C@@H]3OC[C@@H]4F)c12 [Example 2.117]	101	1	
Cc1cc(N=S(C)(C)=O)cc2ncnc(Nc3ccc(F)cc3OC3COCOC3)c12 [Example 2.120]	103	2	
Cc1cc(N=S(C)(C)=O)cc2ncnc(Nc3ccc(F)cc3O[C@@H]3CO[C@@H]4CCO[C@@H]43)c12 [Example 2.121]	89	4	
Cc1cc(N=S(C)(C)=O)cc2ncnc(Nc3ccc(F)cc3O[C@@H]3CO[C@@H]4CCC[C@@H]43)c12 [Example 2.122]	98	2	
